Like-named read-outs stand apart in the source and are kept apart here.
What was measured:
ALK = biological target: T1, ALK (Homo sapiens, UniProt Q9UM73); assay: ALK Kinase Assay (ELISA/TRF, PLC-γ substrate); format: biochemical; conditions: read-out: ALK Potency
T1 construct: host or cells: baculovirus expression system
Method in brief: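 IC50 values derive from percent inhibition plotted against log10 compound concentration and fitted to a variable-slope sigmoidal equation. The underlying reaction used 30 ng/ml ALK acting on immobilized PLC-γ (10 μg/mL in TBS) at 37° C for 15 minutes, read with Eu-N1 PT66 antibody.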

JAK2 = biological target: T2, JAK2 (Homo sapiens, UniProt O60674); assay: Recombinant Human JAK2 Kinase Assay (TRF); format: biochemical; conditions: read-out: JAK2 Potency
T2 construct: host or cells: baculovirus expression system
Method in brief: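 Europium-labelled PY100 antibody reported tyrosine phosphorylation of a Neutravidin-captured biotinyl 15-mer peptide by JAK2 (baculovirus-expressed, 15 ng/ml). Conditions: 20 mM HEPES pH 7.2, 0.2 μM ATP, 1 mM MnCl2, 0.1% BSA, DMSO 2.5% final, 20 min at room temperature.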

[1] = ALK kinase inhibition, 1 μM ATP
[2] = JAK2 kinase inhibition, 0.2 μM ATP

T1 sequence (Q9UM73 19-1620): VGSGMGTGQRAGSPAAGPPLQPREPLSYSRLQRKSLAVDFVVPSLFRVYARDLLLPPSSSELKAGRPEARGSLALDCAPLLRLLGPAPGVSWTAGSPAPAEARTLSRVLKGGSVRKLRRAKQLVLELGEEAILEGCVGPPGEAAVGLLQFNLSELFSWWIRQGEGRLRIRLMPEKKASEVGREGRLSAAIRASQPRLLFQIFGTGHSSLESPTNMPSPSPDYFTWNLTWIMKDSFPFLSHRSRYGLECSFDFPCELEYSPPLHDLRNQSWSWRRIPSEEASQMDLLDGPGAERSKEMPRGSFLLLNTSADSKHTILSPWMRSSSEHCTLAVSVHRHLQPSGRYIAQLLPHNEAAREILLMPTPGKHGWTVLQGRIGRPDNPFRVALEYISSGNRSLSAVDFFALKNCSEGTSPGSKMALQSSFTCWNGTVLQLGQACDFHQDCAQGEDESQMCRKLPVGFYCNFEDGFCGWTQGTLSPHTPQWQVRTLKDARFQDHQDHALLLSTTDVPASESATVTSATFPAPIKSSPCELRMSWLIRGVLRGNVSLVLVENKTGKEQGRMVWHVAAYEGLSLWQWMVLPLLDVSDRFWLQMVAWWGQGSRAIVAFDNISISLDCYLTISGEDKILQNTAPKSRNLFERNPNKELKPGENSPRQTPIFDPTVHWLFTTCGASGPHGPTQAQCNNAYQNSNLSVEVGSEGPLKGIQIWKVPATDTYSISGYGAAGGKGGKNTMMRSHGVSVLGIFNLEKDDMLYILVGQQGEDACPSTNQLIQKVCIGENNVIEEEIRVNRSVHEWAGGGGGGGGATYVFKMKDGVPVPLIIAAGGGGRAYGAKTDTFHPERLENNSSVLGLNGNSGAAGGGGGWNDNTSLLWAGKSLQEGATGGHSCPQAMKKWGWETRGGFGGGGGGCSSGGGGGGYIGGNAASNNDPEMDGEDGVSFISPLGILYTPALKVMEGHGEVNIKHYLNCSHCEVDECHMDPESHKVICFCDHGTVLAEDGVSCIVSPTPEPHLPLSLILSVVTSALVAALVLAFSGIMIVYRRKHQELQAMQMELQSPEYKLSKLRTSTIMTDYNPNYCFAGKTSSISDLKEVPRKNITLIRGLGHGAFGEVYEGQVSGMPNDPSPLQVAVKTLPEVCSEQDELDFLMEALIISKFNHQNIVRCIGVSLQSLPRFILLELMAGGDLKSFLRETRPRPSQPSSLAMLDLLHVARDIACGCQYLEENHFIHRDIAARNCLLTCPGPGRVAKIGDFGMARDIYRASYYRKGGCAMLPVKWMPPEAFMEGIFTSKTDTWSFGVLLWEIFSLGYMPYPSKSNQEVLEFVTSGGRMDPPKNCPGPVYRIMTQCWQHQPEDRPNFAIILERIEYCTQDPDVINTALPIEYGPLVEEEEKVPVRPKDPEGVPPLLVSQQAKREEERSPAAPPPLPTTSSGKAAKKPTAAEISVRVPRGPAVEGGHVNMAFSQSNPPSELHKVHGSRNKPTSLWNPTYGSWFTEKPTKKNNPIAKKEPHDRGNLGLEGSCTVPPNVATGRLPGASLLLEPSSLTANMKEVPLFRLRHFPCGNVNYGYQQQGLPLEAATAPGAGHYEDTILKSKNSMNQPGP
T2 sequence (O60674 whole entry): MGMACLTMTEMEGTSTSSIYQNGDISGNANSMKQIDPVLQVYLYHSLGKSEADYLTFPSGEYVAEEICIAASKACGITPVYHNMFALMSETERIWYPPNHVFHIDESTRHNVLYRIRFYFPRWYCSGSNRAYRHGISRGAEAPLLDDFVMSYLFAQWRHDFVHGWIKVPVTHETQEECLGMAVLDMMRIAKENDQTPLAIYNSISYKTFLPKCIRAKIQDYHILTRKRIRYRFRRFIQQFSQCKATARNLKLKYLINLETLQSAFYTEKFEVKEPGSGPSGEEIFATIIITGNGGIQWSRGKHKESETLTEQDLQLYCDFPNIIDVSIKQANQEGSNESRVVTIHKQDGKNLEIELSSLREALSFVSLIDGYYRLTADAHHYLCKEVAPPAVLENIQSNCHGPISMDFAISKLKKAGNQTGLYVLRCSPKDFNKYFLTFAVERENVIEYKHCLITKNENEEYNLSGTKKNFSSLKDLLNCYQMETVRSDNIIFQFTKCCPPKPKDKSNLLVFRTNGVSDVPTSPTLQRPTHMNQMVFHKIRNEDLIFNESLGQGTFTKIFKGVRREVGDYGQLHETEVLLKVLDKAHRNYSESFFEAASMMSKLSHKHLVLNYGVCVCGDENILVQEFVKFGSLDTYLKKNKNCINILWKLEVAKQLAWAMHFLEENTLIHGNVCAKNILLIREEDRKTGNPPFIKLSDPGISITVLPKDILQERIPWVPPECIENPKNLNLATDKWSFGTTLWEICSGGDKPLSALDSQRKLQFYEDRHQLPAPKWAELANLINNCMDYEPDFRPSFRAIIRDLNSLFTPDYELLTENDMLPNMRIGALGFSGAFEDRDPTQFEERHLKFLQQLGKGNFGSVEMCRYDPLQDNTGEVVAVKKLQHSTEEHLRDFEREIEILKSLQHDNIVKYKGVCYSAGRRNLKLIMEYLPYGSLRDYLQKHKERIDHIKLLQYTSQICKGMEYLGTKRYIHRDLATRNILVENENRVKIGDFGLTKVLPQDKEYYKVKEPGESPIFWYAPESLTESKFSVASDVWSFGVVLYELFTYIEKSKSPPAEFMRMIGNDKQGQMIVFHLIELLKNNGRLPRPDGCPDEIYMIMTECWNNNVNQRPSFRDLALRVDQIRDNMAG

Compound | IC50 (ALK; ALK Kinase Inhibition) | IC50 (JAK2; JAK2 Kinase Inhibition) | IC50 (ALK; [1]) | IC50 (JAK2; [2])
Clc1cccc(-c2ccc3cnc(Nc4ccc5ncccc5c4)nn23)c1 [Example 177, [7-(3-Chloro-phenyl)-pyrrolo[2,1-f][1,2,4]triazin-2-yl]-quinolin-6-yl-amine] | 100 to 1000 nM | < 100 nM | – | –
CN1CCN(c2ccc(Nc3ncc4ccc(-c5cccc(S(=O)(=O)NCCO)c5)n4n3)cc2)CC1 [Example 369, N-(2-Hydroxy-ethyl)-3-{2-[4-(4-methyl-piperazin-1-yl)-phenylamino]-pyrrolo[2,1-f][1,2,4]triazin-7-yl}-benzenesulfonamide] | 100 to 1000 nM | < 100 nM | – | –
COc1ccccc1-c1c(C)c(C)c2cnc(Nc3ccc(N4CCOCC4)cc3)nn12 [Example 112, [7-(2-Methoxy-phenyl)-5,6-dimethyl-pyrrolo[2,1-f][1,2,4]triazin-2-yl]-(4-morpholin-4-yl-phenyl)-amine] | 100 to 1000 nM | < 100 nM | – | –
CCN(CC)C(=O)c1ccccc1-c1ccc2cnc(Nc3ccc(N4CCOCC4)cc3)nn12 [Example 408, N,N-Diethyl-2-[2-(4-morpholin-4-yl-phenylamino)-pyrrolo[2,1-f][1,2,4]triazin-7-yl]-benzamide] | 100 to 1000 nM | < 100 nM | – | –
COc1ccc(CNc2ncc3ccc(-c4ccccc4OC)n3n2)cc1OC [Example 442, (3,4-Dimethoxy-benzyl)-[7-(2-methoxy-phenyl)-pyrrolo[2,1-f][1,2,4]triazin-2-yl]-amine] | > 10000 nM | 1000 to 10000 nM | – | –
CCCS(=O)(=O)Nc1cccc(-c2ccc3cnc(Nc4ccc(N5CCN(C)CC5)cc4)nn23)c1 [Example 417, Propane-1-sulfonic acid (3-{2-[4-(4-methyl-piperazin-1-yl)-phenylamino]-pyrrolo[2,1-f][1,2,4]triazin-7-yl}-phenyl)-amide] | < 100 nM | < 100 nM | – | –
COc1cc(N(C)C(=O)CN2CCN(C)CC2)ccc1Nc1ncc2ccc(-c3ccccc3OC)n2n1 [Example 474, N-{3-Methoxy-4-[7-(2-methoxy-phenyl)-pyrrolo[2,1-f][1,2,4]triazin-2-ylamino]-phenyl}-N-methyl-2-(4-methyl-piperazin-1-yl)-acetamide] | – | – | < 100 nM | 1000 to 10000 nM
CC(=O)Nc1cc(Nc2ncc3ccc(-c4cccnc4)n3n2)ccc1C(C)C [Example 304, N-[2-Isopropyl-5-(7-pyridin-3-yl-pyrrolo[2,1-f][1,2,4]triazin-2-ylamino)-phenyl]-acetamide] | 1000 to 10000 nM | < 100 nM | – | –
COc1ccc(CN2CCN(C)CC2)cc1Nc1ncc2ccc(-c3ccccc3N(C)S(C)(=O)=O)n2n1 [Example 497, N-(2-{2-[2-Methoxy-5-(4-methyl-piperazin-1-ylmethyl)-phenylamino]-pyrrolo[2,1-f][1,2,4]triazin-7-yl}-phenyl)-N-methyl-methanesulfonamide] | – | – | 1000 to 10000 nM | 1000 to 10000 nM
Cc1cc(N2CCN(C)CC2)ccc1Nc1ncc2ccc(-c3cccc(Cl)c3)n2n1 [Example 68, [7-(3-Chloro-phenyl)-pyrrolo[2,1-f][1,2,4]triazin-2-yl]-[2-methyl-4-(4-methyl-piperazin-1-yl)-phenyl]-amine] | < 100 nM | < 100 nM | – | –
COc1cc(N2CCOCC2)ccc1Nc1ncc2cc3ccccc3n2n1 [Example 266, (2-Methoxy-4-morpholin-4-yl-phenyl)-[1,2,4]triazino[1,6-a]indol-2-yl-amine] | 1000 to 10000 nM | > 10000 nM | – | –
COc1cccc(-c2ccc3cnc(Nc4ccc(N5CCN(C)CC5)cc4)nn23)c1 [Example 423, [7-(3-Methoxy-phenyl)-pyrrolo[2,1-f][1,2,4]triazin-2-yl]-[4-(4-methyl-piperazin-1-yl)-phenyl]-amine] | 100 to 1000 nM | < 100 nM | – | –
CN1C(=O)Cc2cc(Nc3ncc4ccc(-c5cccc(NS(C)(=O)=O)c5)n4n3)ccc21 [Example 361, N-{3-[2-(1-Methyl-2-oxo-2,3-dihydro-1H-indol-5-ylamino)-pyrrolo[2,1-f][1,2,4]triazin-7-yl]-phenyl}-methanesulfonamide] | 100 to 1000 nM | < 100 nM | – | –
COc1ccccc1-c1ccc2cnc(Nc3ccc4c(c3)CC(=O)N4C)nn12 [Example 359, 5-[7-(2-Methoxy-phenyl)-pyrrolo[2,1-f][1,2,4]triazin-2-ylamino]-1-methyl-1,3-dihydro-indol-2-one] | 100 to 1000 nM | < 100 nM | – | –

The next lines start with the values.

IC50 (ALK; ALK Kinase Inhibition) | IC50 (JAK2; JAK2 Kinase Inhibition) | IC50 (ALK; [1]) | IC50 (JAK2; [2]) | Compound
– | – | > 10000 nM | > 10000 nM | COc1cc(C2CCN(C[C@H](Oc3ncc4ccc(-c5ccccc5N(C)S(C)(=O)=O)n4n3)C(F)(F)F)CC2)ccc1N [Example 785, N-[2-(2-{(S)-1-[4-(4-Amino-3-methoxy-phenyl)-piperidin-1-ylmethyl]-2,2,2-trifluoro-ethoxy}-pyrrolo[2,1-f][1,2,4]triazin-7-yl)-phenyl]-N-methyl-methanesulfonamide]
– | – | 100 to 1000 nM | < 100 nM | CCN(CC)C1CCN(c2ccc(Nc3ncc4ccc(-c5cccc(NS(=O)(=O)C(C)(C)C)c5)n4n3)cc2)CC1 [Example 1205, 2-Methyl-propane-2-sulfonic acid (3-{2-[4-(4-diethylamino-piperidin-1-yl)-phenylamino]-pyrrolo[2,1-f][1,2,4]triazin-7-yl}-phenyl)-amide]
1000 to 10000 nM | 1000 to 10000 nM | – | – | CN(C)Cc1ccc(-c2ccc3cnc(Nc4ccc(C5CCN(CC(N)=O)CC5)cc4)nn23)cc1 [Example 1433, 2-(4-{4-[7-(4-Dimethylaminomethyl-phenyl)-pyrrolo[2,1-f][1,2,4]triazin-2-ylamino]-phenyl}-piperidin-1-yl)-acetamide]
– | – | 1000 to 10000 nM | < 100 nM | COc1ccccc1-c1ccc2cnc(Nc3cccc(C4C(=O)N(C)CCN4C)c3)nn12 (stereo not shown) [Example 1082, 3-{3-[7-(2-Methoxy-phenyl)-pyrrolo[2,1-f][1,2,4]triazin-2-ylamino]-phenyl}-1,4-dimethyl-piperazin-2-one]
– | – | 1000 to 10000 nM | < 100 nM | CS(=O)(=O)c1ccc(-c2ccc3cnc(Nc4ccc5[nH]c(=O)[nH]c5c4)nn23)cc1 [Example 1303, 5-[7-(4-Methanesulfonyl-phenyl)-pyrrolo[2,1-f][1,2,4]triazin-2-ylamino]-1,3-dihydro-benzimidazol-2-one]
– | – | 100 to 1000 nM | < 100 nM | c1cc2c(c(-c3ccc4cnc(Nc5cnn(C6CCNCC6)c5)nn34)c1)OCC2 [Example 715, [7-(2,3-Dihydrobenzofuran-7-yl)pyrrolo[2,1-f][1,2,4]triazin-2-yl]-(1-piperidin-4-yl-1H-pyrazol-4-yl)amine]
– | – | < 100 nM | < 100 nM | CN1CCN(c2cccc(Nc3ncc4ccc(-c5cccc(S(=O)(=O)NC(C)(C)C)c5)n4n3)c2)CC1 [Example 883, N-tert-Butyl-3-{2-[3-(4-methyl-piperazin-1-yl)-phenylamino]-pyrrolo[2,1-f][1,2,4]triazin-7-yl}-benzenesulfonamide]
– | – | 100 to 1000 nM | < 100 nM | CN1CCC(c2ccc(Nc3ncc4ccc(-c5cccc(S(=O)(=O)N6CCCCC6)c5)n4n3)cc2)CC1 [Example 905, [4-(1-Methyl-piperidin-4-yl)-phenyl]-{7-[3-(piperidine-1-sulfonyl)-phenyl]-pyrrolo[2,1-f][1,2,4]triazin-2-yl}-amine]
– | – | 100 to 1000 nM | < 100 nM | CN1CCOc2ccc(Nc3ncc4ccc(-c5ccccc5N(C)S(C)(=O)=O)n4n3)cc21 [Example 641, N-Methyl-N-{2-[2-(4-methyl-3,4-dihydro-2H-benzo[1,4]oxazin-6-ylamino)-pyrrolo[2,1-f][1,2,4]triazin-7-yl]-phenyl}methanesulfonamide]
1000 to 10000 nM | < 100 nM | – | – | CC(=O)N1CCCC(C)(C)c2ccc(Nc3ncc4ccc(-c5cnn(C)c5)n4n3)cc21 [Example 1381, 1-{5,5-Dimethyl-8-[7-(1-methyl-1H-pyrazol-4-yl)-pyrrolo[2,1-f][1,2,4]triazin-2-ylamino]-2,3,4,5-tetrahydro-benzo[b]azepin-1-yl}-ethanone]
– | – | < 100 nM | 100 to 1000 nM | COc1cc([C@@H]2CCN(CCF)C[C@@H]2O)ccc1Nc1ncc2ccc(-c3ccccc3N(C)S(C)(=O)=O)n2n1 (racemic) [Example 843, (±)-N-[2-(2-{4-[(3R,4S)-1-(2-Fluoro-ethyl)-3-hydroxy-piperidin-4-yl]-2-methoxy-phenylamino}-pyrrolo[2,1-f][1,2,4]triazin-7-yl)-phenyl]-N-methyl-methanesulfonamide]
– | – | 100 to 1000 nM | < 100 nM | CS(=O)(=O)Nc1cccc(-c2ccc3cnc(Nc4ccc(N5CCC(N6CCOCC6)CC5)cc4)nn23)c1 [Example 636, N-(3-{2-[4-(4-Morpholin-4-yl-piperidin-1-yl)-phenylamino]-pyrrolo[2,1-f][1,2,4]triazin-7-yl}-phenyl)-methanesulfonamide]
– | – | 1000 to 10000 nM | > 10000 nM | CN1CCN(c2ccc(Nc3ncc4c(-c5ccc(F)cc5)ccn4n3)cc2)CC1 [Example 726, [5-(4-Fluoro-phenyl)-pyrrolo[2,1-f][1,2,4]triazin-2-yl]-[4-(4-methyl-piperazin-1-yl)-phenyl]-amine]
– | – | < 100 nM | < 100 nM | CN1CCC(c2ccc(Nc3ncc4ccc(-c5cccc(N(C)C)c5)n4n3)cc2)CC1 [Example 662, [7-(3-Dimethylamino-phenyl)-pyrrolo[2,1-f][1,2,4]triazin-2-yl]-[4-(1-methyl-piperidin-4-yl)-phenyl]-amine]
100 to 1000 nM | < 100 nM | – | – | CN(c1ccccc1-c1ccc2cnc(Nc3ccc4nc(CN5CCN(CCO)CC5)[nH]c4c3)nn12)S(C)(=O)=O [Example 1521, N-[2-(2-{2-[4-(2-Hydroxy-ethyl)-piperazin-1-ylmethyl]-3H-benzimidazol-5-ylamino}-pyrrolo[2,1-f][1,2,4]triazin-7-yl)-phenyl]-N-methyl-methanesulfonamide]

— US8471005B2 (Cephalon, Inc., priority 2008, dated 2013)
